Data published in ChEMBL document CHEMBL1909046, “DrugMatrix in vitro pharmacology data”.

Key:
Cytochrome P450 2A6 = target: T1, Cytochrome P450 2A6 (Homo sapiens, UniProt P11509); details: bti-tn-5b1-4; note: in other assays of this panel Not Active means under 50% inhibition at 10 µM
T1 sequence (P11509 whole entry): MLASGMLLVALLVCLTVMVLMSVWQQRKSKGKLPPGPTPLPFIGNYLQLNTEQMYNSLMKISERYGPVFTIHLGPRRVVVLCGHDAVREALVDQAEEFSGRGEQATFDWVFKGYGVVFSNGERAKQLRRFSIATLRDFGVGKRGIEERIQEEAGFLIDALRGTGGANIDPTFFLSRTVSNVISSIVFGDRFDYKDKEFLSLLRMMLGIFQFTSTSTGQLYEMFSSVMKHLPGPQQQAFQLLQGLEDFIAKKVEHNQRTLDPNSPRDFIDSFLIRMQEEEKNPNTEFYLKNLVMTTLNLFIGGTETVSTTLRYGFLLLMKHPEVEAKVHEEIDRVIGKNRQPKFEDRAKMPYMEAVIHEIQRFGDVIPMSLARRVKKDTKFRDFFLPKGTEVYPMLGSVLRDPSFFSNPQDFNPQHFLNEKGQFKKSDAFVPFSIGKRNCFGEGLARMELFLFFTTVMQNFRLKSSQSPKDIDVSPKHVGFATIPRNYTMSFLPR

[1] = DRUGMATRIX: Sodium/nucleoside co-transporter radioligand binding (ligand: nitrobenzylthioinosine); format: cell membranes, Cavia porcellus, Dunkin-Hartley, Cerebral cortex, Membrane; details: Not Active = under 50% inhibition at 10 µM
[2] = DRUGMATRIX: Calcium Channel Type L, Phenylalkylamine radioligand binding (ligand: [3H] (-)-Desmethoxyverapamil (D-888)); format: cell membranes, Rattus norvegicus, Wistar, Brain, Membrane; details: Not Active = under 50% inhibition at 10 µM
[3] = DRUGMATRIX: Nicotinic Acetylcholine radioligand binding (ligand: [125I] Epibatidine); format: cell membranes, Membrane; details: imr-32; Not Active = under 50% inhibition at 10 µM
Cytochrome P450 2D6 = Cytochrome P450 2D6 (Homo sapiens, UniProt P10635); note: in other assays of this panel Not Active means under 50% inhibition at 10 µM
[4] = DRUGMATRIX: Glutamate, AMPA radioligand binding (ligand: [3H] AMPA); format: cell membranes, Rattus norvegicus, Wistar, Cerebral cortex, Membrane; details: Not Active = under 50% inhibition at 10 µM
[5] = target: T2, Alpha-1B adrenergic receptor (Rattus norvegicus, UniProt P15823); test: DRUGMATRIX: Alpha-1B adrenergic receptor radioligand binding (ligand: prazosin); format: cell membranes, Wistar, Liver, Membrane; details: Not Active = under 50% inhibition at 10 µM
T2 sequence (P15823 whole entry): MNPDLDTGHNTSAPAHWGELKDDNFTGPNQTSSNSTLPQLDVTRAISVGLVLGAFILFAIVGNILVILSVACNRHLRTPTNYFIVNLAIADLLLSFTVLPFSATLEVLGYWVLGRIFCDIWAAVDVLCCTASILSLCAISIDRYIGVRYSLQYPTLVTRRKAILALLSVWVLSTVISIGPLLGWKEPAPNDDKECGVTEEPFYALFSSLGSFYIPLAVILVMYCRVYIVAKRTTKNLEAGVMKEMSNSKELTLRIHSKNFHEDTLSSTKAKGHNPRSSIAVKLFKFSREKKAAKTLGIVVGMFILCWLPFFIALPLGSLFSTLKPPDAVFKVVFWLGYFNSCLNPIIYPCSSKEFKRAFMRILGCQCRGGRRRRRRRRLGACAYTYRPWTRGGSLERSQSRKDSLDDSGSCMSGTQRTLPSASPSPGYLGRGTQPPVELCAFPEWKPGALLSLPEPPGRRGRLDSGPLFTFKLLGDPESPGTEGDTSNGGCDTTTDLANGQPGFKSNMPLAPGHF

Androgen receptor = target: T3, Androgen receptor (Rattus norvegicus, UniProt P15207); note: in other assays of this panel Not Active means under 50% inhibition at 10 µM
T3 sequence (P15207 whole entry): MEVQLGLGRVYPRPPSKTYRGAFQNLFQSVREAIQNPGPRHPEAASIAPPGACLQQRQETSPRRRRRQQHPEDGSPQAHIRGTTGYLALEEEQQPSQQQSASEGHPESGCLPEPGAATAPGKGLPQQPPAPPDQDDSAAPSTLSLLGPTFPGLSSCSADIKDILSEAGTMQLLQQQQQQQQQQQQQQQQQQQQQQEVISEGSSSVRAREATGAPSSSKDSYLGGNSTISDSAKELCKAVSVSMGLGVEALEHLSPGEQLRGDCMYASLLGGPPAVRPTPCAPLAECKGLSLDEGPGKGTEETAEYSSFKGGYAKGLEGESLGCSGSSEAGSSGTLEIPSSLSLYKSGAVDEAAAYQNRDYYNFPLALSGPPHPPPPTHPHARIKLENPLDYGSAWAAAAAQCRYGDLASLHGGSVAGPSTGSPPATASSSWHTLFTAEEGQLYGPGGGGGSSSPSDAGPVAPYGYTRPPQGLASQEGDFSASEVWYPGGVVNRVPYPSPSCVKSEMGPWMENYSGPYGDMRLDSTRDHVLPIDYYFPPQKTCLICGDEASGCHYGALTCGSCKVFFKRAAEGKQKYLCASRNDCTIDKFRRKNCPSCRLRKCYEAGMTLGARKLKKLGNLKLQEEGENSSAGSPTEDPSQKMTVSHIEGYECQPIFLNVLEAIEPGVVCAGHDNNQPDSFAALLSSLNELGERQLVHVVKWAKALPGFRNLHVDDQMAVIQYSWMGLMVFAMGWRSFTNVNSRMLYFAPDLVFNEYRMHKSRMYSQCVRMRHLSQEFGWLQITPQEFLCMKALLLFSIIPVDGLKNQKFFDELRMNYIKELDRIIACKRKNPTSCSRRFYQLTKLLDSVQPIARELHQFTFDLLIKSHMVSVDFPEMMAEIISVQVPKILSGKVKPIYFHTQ

Cytochrome P450 2D6, sequence (P10635 whole entry): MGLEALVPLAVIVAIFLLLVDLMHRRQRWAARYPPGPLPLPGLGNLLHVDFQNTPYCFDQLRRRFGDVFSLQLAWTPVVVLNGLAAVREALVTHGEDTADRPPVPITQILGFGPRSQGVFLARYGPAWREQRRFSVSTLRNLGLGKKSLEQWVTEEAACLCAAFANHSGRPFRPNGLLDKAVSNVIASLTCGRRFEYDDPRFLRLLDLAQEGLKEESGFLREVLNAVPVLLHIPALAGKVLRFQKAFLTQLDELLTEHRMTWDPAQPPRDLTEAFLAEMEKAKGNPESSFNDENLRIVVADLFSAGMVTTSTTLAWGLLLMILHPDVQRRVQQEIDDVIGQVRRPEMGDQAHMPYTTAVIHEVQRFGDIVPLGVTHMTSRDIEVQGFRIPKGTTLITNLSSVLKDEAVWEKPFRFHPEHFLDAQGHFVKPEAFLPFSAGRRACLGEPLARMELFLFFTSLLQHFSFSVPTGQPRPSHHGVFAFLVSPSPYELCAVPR

Row | Molecule | IC50 (Cytochrome P450 2A6) | Ki (Cytochrome P450 2A6) | IC50 [1] | Ki [1] | IC50 [2] | Ki [2] | IC50 [3] | Ki [3] | IC50 (Cytochrome P450 2D6) | IC50 [4] | Ki [4] | IC50 [5] | IC50 (Androgen receptor) | Ki (Androgen receptor) | Ki [5]
1 | CNC(=O)Oc1ccc2c(c1)[C@]1(C)CCN(C)[C@@H]1N2C [PHYSOSTIGMINE] | Not Active | Not Active | Not Active | Not Active | Not Active | Not Active | Not Active | Not Active | 200 nM | Not Active | Not Active | Not Active |  |  | 
2 | COc1ccc(CN(CCN(C)C)c2ccccn2)cc1 [PYRILAMINE] | Not Active | Not Active | Not Active | Not Active | Not Active | Not Active | Not Active | Not Active | 300 nM | Not Active | Not Active | Not Active |  |  | 
3 | CARBOPLATIN | Not Active | Not Active | Not Active | Not Active | Not Active | Not Active | Not Active | Not Active |  | Not Active | Not Active | Not Active | Not Active | Not Active | Not Active
4 | CISPLATIN | Not Active | Not Active | Not Active | Not Active | Not Active | Not Active | Not Active | Not Active |  | Not Active | Not Active | Not Active | Not Active | Not Active | Not Active
5 | GOLD SODIUM THIOMALATE | Not Active | Not Active | Not Active | Not Active | Not Active | Not Active | Not Active | Not Active |  | Not Active | Not Active | Not Active | Not Active | Not Active | Not Active
6 | OXALIPLATIN | Not Active | Not Active | Not Active | Not Active | Not Active | Not Active | Not Active | Not Active |  | Not Active | Not Active | Not Active | Not Active | Not Active | Not Active
